Measured values from patent US10844077B2, “Thiazolyl-containing compounds for treating proliferative diseases” (Dana-Farber Cancer Institute, Inc., priority 2014, dated 2020).
Read-outs that look alike come from different tables or passages of the source.

Key:
Format in all cases: cell-based
kinases in BCWM.1 cells [1] = target: kinases in BCWM.1 cells (Homo sapiens, UniProt O00329); details: PIK3CD; ATP; 1 μM, 90 min; GF
Procedure: (§1) The cells were harvested and lysed. […] Bound kinases were identified and quantitated by ACTIVX as described in Patricelli et al., Biochemistry, 2007, 46(2): 350-358. The compounds were tested in duplicates against duplicate or quadruplicate control samples.

kinases in BCWM.1 cells [2] = target: kinases in BCWM.1 cells (Homo sapiens, UniProt O75385); details: ULK1; Lys2; 1 μM, 90 min; GF
Procedure: as §1

kinases in BCWM.1 cells [3] = target: kinases in BCWM.1 cells (Homo sapiens, UniProt O95819); details: ZC1/HGK; Lys1; 1 μM, 90 min; GF
Procedure: as §1

kinases in BCWM.1 cells [4] = target: kinases in BCWM.1 cells (Homo sapiens, UniProt P04049); details: RAF1; Lys2; 1 μM, 90 min; GF
Procedure: as §1

kinases in BCWM.1 cells [5] = target: kinases in BCWM.1 cells (Homo sapiens, UniProt P15735); details: PHKg2; Lys1; 1 μM, 90 min; GF
Procedure: as §1

kinases in BCWM.1 cells [6] = target: kinases in BCWM.1 cells (Homo sapiens, UniProt P23443); details: p70S6K; Lys2; 1 μM, 90 min; GF
Procedure: as §1

kinases in BCWM.1 cells [7] = target: kinases in BCWM.1 cells (Homo sapiens, UniProt P29597); details: TYK2 domain2; Activation Loop; 1 μM, 90 min; GF
Procedure: as §1

kinases in BCWM.1 cells [8] = target: kinases in BCWM.1 cells (Homo sapiens, UniProt P43405); details: SYK; Activation Loop; 1 μM, 90 min; GF
Procedure: as §1

kinases in BCWM.1 cells [9] = target: kinases in BCWM.1 cells (Homo sapiens, UniProt P48736); details: PIK3CG; ATP; 1 μM, 90 min; GF
Procedure: as §1

kinases in BCWM.1 cells [10] = target: kinases in BCWM.1 cells (Homo sapiens, UniProt P51957); details: NEK4; Lys2; 1 μM, 90 min; GF
Procedure: as §1

kinases in BCWM.1 cells [11] = target: kinases in BCWM.1 cells (Homo sapiens, UniProt P53350); details: PLK1; Lys1; 1 μM, 90 min; GF
Procedure: as §1

kinases in BCWM.1 cells [12] = target: kinases in BCWM.1 cells (Homo sapiens, UniProt Q13464); details: ROCK1; Protein Kinase Domain; 1 μM, 90 min; GF
Procedure: as §1

kinases in BCWM.1 cells [13] = target: kinases in BCWM.1 cells (Homo sapiens, UniProt Q13523); details: PRP4; Lys2; 1 μM, 90 min; GF
Procedure: as §1

kinases in BCWM.1 cells [14] = target: kinases in BCWM.1 cells (Homo sapiens, UniProt Q14289); details: PYK2; Activation Loop; 1 μM, 90 min; GF
Procedure: as §1

kinases in BCWM.1 cells [15] = target: kinases in BCWM.1 cells (Homo sapiens, UniProt Q15349); details: RSK3 domain1; Lys2; 1 μM, 90 min; GF
Procedure: as §1

kinases in BCWM.1 cells [16] = target: kinases in BCWM.1 cells (Homo sapiens, UniProt Q6PHR2); details: ULK3; Lys2; 1 μM, 90 min; GF
Procedure: as §1

kinases in BCWM.1 cells [17] = target: kinases in BCWM.1 cells (Homo sapiens, UniProt Q7RTN6); details: STLK5; Activation Loop; 1 μM, 90 min; GF
Procedure: as §1

kinases in BCWM.1 cells [18] = target: kinases in BCWM.1 cells (Homo sapiens, UniProt Q86UE8); details: TLK2; Lys2; 1 μM, 90 min; GF
Procedure: as §1

kinases in BCWM.1 cells [19] = target: kinases in BCWM.1 cells (Homo sapiens, UniProt Q8TD19); details: NEK9; Lys2; 1 μM, 90 min; GF
Procedure: as §1

kinases in BCWM.1 cells [20] = target: kinases in BCWM.1 cells (Homo sapiens, UniProt Q96PY6); details: NEK1; Lys2; 1 μM, 90 min; GF
Procedure: as §1

kinases in BCWM.1 cells [21] = target: kinases in BCWM.1 cells (Homo sapiens, UniProt Q96S44); details: PRPK; ATP Loop; 1 μM, 90 min; GF
Procedure: as §1

kinases in BCWM.1 cells [22] = target: kinases in BCWM.1 cells (Homo sapiens, UniProt Q9BZL6); details: PKD2; Lys1; 1 μM, 90 min; GF
Procedure: as §1

kinases in BCWM.1 cells [23] = target: kinases in BCWM.1 cells (Homo sapiens, UniProt Q9NZJ5); details: PEK; Lys2; 1 μM, 90 min; GF
Procedure: as §1

kinases in BCWM.1 cells [24] = target: kinases in BCWM.1 cells (Homo sapiens, UniProt Q9UBE8); details: NLK; Lys2; 1 μM, 90 min; GF
Procedure: as §1

kinases in BCWM.1 cells [25] = target: kinases in BCWM.1 cells (Homo sapiens, UniProt Q9Y572); details: RIPK3; Lys2; 1 μM, 90 min; GF
Procedure: as §1

kinases in BCWM.1 cells [26] = details: 1 μM, 90 min, GF
Procedure: as §1

Sequence of kinases in BCWM.1 cells (Homo sapiens, UniProt O95819) (O95819 2-1239 limits assumed): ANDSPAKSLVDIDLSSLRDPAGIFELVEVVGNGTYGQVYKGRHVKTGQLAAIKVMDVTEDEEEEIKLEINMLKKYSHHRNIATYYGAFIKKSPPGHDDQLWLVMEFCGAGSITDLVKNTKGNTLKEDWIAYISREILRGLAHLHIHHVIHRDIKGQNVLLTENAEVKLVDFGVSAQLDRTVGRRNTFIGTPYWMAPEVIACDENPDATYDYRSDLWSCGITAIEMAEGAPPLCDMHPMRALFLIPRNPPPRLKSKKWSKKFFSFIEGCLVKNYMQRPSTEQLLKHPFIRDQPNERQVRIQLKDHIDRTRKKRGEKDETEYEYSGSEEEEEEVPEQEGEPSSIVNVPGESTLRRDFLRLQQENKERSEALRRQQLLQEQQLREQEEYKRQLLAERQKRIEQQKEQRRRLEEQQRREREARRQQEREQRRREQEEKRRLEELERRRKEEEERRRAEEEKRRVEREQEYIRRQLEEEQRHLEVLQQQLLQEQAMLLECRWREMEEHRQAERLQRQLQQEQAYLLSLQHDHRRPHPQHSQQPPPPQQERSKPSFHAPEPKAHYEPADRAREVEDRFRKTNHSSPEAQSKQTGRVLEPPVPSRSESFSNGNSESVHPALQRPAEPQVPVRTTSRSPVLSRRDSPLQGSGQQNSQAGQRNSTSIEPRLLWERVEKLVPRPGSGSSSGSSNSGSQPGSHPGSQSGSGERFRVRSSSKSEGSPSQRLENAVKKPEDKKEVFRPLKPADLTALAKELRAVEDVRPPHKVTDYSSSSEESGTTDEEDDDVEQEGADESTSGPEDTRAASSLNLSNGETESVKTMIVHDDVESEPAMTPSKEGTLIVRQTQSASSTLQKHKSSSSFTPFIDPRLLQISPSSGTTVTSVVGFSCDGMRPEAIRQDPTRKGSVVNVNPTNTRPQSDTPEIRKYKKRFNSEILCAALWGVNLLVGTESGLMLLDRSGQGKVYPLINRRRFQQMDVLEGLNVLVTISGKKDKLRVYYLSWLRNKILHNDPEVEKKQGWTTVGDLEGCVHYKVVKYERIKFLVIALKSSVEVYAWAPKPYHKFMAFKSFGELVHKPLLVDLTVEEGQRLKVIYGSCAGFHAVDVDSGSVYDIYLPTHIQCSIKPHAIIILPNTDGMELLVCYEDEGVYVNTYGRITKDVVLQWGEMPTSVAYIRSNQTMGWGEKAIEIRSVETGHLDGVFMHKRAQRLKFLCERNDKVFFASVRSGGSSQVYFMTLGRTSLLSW
Sequence of kinases in BCWM.1 cells (Homo sapiens, UniProt Q13464) (Q13464 2-1354 limits assumed): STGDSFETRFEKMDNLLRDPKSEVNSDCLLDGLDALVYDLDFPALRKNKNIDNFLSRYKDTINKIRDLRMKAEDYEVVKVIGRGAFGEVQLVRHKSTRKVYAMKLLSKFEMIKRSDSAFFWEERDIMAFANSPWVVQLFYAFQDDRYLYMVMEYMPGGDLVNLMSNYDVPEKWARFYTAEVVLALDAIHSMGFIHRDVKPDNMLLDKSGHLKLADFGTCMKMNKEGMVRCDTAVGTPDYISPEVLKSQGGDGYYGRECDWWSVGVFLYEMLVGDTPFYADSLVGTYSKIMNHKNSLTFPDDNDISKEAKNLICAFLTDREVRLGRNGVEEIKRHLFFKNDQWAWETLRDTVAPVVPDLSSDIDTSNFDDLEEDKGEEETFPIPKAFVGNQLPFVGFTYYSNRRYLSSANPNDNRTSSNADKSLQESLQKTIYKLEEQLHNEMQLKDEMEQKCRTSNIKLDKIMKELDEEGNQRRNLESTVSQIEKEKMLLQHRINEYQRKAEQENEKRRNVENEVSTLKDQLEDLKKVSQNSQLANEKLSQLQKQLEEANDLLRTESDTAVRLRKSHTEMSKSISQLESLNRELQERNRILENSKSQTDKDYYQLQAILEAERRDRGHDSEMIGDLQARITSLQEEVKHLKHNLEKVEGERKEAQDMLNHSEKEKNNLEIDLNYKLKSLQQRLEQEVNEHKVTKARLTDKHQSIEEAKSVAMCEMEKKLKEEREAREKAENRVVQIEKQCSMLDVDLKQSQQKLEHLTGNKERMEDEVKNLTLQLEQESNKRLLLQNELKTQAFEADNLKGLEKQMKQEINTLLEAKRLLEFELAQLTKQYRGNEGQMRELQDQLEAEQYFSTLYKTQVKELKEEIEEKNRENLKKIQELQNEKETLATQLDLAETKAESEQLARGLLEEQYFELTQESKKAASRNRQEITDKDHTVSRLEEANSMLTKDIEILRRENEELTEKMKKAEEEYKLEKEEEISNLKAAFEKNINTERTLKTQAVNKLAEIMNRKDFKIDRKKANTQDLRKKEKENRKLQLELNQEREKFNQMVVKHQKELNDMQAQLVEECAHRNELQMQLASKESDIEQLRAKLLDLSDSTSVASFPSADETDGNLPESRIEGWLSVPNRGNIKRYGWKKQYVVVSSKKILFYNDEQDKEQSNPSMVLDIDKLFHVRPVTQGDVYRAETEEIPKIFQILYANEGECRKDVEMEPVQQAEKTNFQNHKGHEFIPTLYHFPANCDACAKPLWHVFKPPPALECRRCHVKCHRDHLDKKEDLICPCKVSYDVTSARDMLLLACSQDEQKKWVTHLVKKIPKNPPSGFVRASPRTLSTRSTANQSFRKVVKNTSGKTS
Sequence of kinases in BCWM.1 cells (Homo sapiens, UniProt Q9NZJ5) (Q9NZJ5 30-1116 limits assumed): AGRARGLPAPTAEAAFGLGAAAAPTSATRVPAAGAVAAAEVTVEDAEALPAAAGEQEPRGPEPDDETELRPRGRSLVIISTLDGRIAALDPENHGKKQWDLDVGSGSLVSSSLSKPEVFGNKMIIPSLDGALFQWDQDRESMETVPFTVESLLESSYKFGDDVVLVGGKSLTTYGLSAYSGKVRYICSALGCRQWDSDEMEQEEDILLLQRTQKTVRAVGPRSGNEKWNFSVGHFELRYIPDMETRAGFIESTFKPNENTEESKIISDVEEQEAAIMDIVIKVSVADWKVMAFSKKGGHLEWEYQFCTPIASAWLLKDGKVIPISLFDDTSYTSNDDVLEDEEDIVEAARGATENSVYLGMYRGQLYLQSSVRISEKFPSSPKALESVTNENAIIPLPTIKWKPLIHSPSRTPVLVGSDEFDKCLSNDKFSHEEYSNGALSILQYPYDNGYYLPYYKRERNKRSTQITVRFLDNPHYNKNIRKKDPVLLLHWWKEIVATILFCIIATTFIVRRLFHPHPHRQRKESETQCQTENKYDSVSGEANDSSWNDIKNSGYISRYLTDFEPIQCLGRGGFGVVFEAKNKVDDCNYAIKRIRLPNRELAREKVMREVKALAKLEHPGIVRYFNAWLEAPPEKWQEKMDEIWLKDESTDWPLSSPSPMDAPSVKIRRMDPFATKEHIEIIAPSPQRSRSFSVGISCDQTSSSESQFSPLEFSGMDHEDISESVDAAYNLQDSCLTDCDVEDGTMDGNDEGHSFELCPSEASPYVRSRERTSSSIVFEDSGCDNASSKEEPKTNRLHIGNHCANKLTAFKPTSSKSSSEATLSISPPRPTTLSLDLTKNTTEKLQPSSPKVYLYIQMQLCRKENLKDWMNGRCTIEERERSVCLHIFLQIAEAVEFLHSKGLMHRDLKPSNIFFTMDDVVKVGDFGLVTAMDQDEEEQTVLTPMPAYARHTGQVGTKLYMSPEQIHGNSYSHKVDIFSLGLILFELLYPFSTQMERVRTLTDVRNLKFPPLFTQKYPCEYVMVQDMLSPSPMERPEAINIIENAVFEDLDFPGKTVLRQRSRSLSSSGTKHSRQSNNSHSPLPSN
Sequence of kinases in BCWM.1 cells (Homo sapiens, UniProt Q8TD19) (Q8TD19 2-979 limits assumed): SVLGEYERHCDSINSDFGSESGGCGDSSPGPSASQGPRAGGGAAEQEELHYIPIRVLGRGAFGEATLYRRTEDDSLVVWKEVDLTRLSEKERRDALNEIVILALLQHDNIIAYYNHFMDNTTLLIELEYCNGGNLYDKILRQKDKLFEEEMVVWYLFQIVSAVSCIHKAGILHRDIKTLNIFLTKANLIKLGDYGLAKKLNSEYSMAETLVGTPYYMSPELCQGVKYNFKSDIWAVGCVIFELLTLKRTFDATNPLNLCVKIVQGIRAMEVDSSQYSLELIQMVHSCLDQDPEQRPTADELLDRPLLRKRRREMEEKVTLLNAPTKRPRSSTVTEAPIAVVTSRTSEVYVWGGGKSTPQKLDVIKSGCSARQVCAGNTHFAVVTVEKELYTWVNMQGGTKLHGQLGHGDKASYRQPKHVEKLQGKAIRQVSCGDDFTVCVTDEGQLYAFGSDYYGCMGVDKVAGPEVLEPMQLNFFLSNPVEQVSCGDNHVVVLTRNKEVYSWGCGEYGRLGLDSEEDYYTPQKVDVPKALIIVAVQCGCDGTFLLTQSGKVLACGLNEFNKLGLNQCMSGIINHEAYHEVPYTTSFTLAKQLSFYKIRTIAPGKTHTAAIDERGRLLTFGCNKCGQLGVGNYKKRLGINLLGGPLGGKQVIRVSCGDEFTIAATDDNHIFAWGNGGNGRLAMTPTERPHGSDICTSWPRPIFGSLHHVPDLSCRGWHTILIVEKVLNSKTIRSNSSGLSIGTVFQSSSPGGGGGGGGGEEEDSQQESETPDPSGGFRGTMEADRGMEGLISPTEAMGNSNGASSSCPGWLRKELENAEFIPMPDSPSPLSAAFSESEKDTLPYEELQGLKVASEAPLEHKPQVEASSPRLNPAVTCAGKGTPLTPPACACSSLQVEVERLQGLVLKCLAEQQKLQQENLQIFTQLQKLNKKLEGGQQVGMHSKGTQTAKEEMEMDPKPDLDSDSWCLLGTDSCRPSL

## C=CC(=O)N1CC[C@H](Nc2nccc(Nc3ncc(C(=O)Nc4c(C)cccc4C)s3)n2)C1 [Example I-3]
Kinases in BCWM.1 cells [1]
  % change of MS signal compared to control sample: −17.2%
Kinases in BCWM.1 cells [2]
  % change of MS signal compared to control sample: −8.2%
Kinases in BCWM.1 cells [3]
  % change of MS signal compared to control sample: −16.8%
Kinases in BCWM.1 cells [4]
  % change of MS signal compared to control sample: 9.9%
Kinases in BCWM.1 cells [5]
  % change of MS signal compared to control sample: 22.3%
Kinases in BCWM.1 cells [6]
  % change of MS signal compared to control sample: −51.5%
Kinases in BCWM.1 cells [7]
  % change of MS signal compared to control sample: −5.5%
Kinases in BCWM.1 cells [8]
  % change of MS signal compared to control sample: −1.1%
Kinases in BCWM.1 cells [9]
  % change of MS signal compared to control sample: −3.4%
Kinases in BCWM.1 cells [10]
  % change of MS signal compared to control sample: 7.3%
Kinases in BCWM.1 cells [11]
  % change of MS signal compared to control sample: −23%
Kinases in BCWM.1 cells [12]
  % change of MS signal compared to control sample: −16.9%
Kinases in BCWM.1 cells [13]
  % change of MS signal compared to control sample: −6.2%
Kinases in BCWM.1 cells [14]
  % change of MS signal compared to control sample: −12.1%
Kinases in BCWM.1 cells [15]
  % change of MS signal compared to control sample: −19%
Kinases in BCWM.1 cells [16]
  % change of MS signal compared to control sample: −47.2%
Kinases in BCWM.1 cells [17]
  % change of MS signal compared to control sample: −17.7%
Kinases in BCWM.1 cells [18]
  % change of MS signal compared to control sample: 4.7%
Kinases in BCWM.1 cells [19]
  % change of MS signal compared to control sample: −9.9%
Kinases in BCWM.1 cells [20]
  % change of MS signal compared to control sample: −7.6%
Kinases in BCWM.1 cells [21]
  % change of MS signal compared to control sample: 17.3%
Kinases in BCWM.1 cells [22]
  % change of MS signal compared to control sample: −1.4%
Kinases in BCWM.1 cells [23]
  % change of MS signal compared to control sample: 6.4%
Kinases in BCWM.1 cells [24]
  % change of MS signal compared to control sample: 85.9%
Kinases in BCWM.1 cells [25]
  % change of MS signal compared to control sample: 22%
Kinases in BCWM.1 cells [26]; MST4, YSK1, Lys2
  % change of MS signal compared to control sample: 15.5%
Kinases in BCWM.1 cells [26]; NEK6, NEK7, Lys2
  % change of MS signal compared to control sample: −13.1%
Kinases in BCWM.1 cells [26]; PCTAIRE2, PCTAIRE3, Lys1
  % change of MS signal compared to control sample: −12%
Kinases in BCWM.1 cells [26]; PI4KA, PI4KAP2, ATP
  % change of MS signal compared to control sample: 12%
Kinases in BCWM.1 cells [26]; PKACa, PKCb, Lys2
  % change of MS signal compared to control sample: 3.3%
Kinases in BCWM.1 cells [26]; ROCK1, ROCK2, Lys2
  % change of MS signal compared to control sample: 12.5%
Kinases in BCWM.1 cells [26]; RSK1 domain1, RSK2 domain1, RSK3 domain1, Lys2
  % change of MS signal compared to control sample: −7.3%
Kinases in BCWM.1 cells [26]; SRPK1, SRPK2, Lys1
  % change of MS signal compared to control sample: 22.3%
Kinases in BCWM.1 cells [26]; TAO1, TAO3, Lys2
  % change of MS signal compared to control sample: 14.3%
Kinases in BCWM.1 cells [26]; Wnk1, Wnk2, Wnk3, Lys2
  % change of MS signal compared to control sample: −1.2%
Kinases in BCWM.1 cells [26]; Wnk1, Wnk2, ATP Loop
  % change of MS signal compared to control sample: 6.8%
Kinases in BCWM.1 cells [26]; ZC1/HGK, ZC2/TNIK, ZC3/MINK, Lys2
  % change of MS signal compared to control sample: −0.1%
Kinases in BCWM.1 cells [26]; p38d, p38g, Lys2
  % change of MS signal compared to control sample: −0.7%
